From a compilation of properties of binary mixtures (doi:10.1016/j.fluid.2022.113559) come the findings set out here.

For orientation: viscosity means the internal friction of a fluid under shear. Read a high viscosity as a thick fluid.

This series is described as follows: xn = mol fraction of the nth substance listed. Particulars: 101 kPa, x1 = 0.3333.

Turning to `CCOS(=O)(=O)[O-].CC[n+]1ccn(C)c1` + CS(C)=O, the viscosity (283.15 K) turned out to be 4.35 mPa·s; the viscosity (298.15 K) is 3.16 mPa·s; the viscosity (303.15 K) amounted to 2.83 mPa·s; the viscosity (308.15 K) turned out to be 2.53 mPa·s; the viscosity (318.15 K) turned out to be 2.02 mPa·s; the viscosity (323.15 K) came out at 1.82 mPa·s. In addition, the viscosity by setting is: (328.15 K) 1.64 mPa·s; (333.15 K) 1.5 mPa·s; (338.15 K) 1.39 mPa·s; (343.15 K) 1.32 mPa·s; (353.15 K) 1.24 mPa·s.

`CC[n+]1ccn(C)c1.N#C[S-]` + CS(C)=O: the viscosity by setting is: (283.15 K) 3.95 mPa·s; (288.15 K) 3.58 mPa·s; (298.15 K) 2.92 mPa·s; (303.15 K) 2.63 mPa·s; (313.15 K) 2.12 mPa·s; (318.15 K) 1.91 mPa·s. Moreover, the viscosity by setting is: (323.15 K) 1.73 mPa·s; (333.15 K) 1.44 mPa·s; (338.15 K) 1.34 mPa·s; (343.15 K) 1.26 mPa·s; (348.15 K) 1.21 mPa·s; (353.15 K) 1.19 mPa·s.
